Results taken from patent EP4660182A1, “NAV1.7- AND/OR NAV1.8-INHIBITING ARYL PYRIDINE COMPOUNDS, PROCESSES FOR THE PREPARATION THEREOF, COMPOSITIONS, USES, METHODS FOR TREATMENT USING SAME, AND KITS” (Eurofarma Laboratórios S.A., priority 2023, dated 2024).
pIC50: −log10 of the molar value.

Tests used:
[1] = target: T1, human sodium channels Nav 1.8 (Homo sapiens, UniProt Q9Y5Y9); assay: Automated whole-cell voltage-clamp (ScreenPatch 384P) sodium current block, Nav 1.8; assay type: cell-based; conditions: CHO cells stably expressing human Nav 1.8; inactivation step -40 mV 8 s, test step 10 mV (TP1A); eight concentrations; exposure at least five minutes; room temperature; read-out: Nav1.8 IC50
T1 construct: expressed in transfected cells
Protocol: (§1) Biological assays were performed on Chinese hamster ovary (CHO) cells that express human sodium channels Nav 1.8 or Nav 1.7 in a stable manner.
(§2) The experimental protocol voltage-clamp using the whole cell configuration was established on the automated ScreenPatch® 384P platform (SP384PE, Nanion Technologies, Livingston, NJ) and the results were recorded with a Nanion 384-well Patch Clamp chip (NPC) (Nanion Technologies, Livingston, NJ).
(§3) Formula I compounds were diluted in eight concentrations in the extracellular solution composed of saline solution, buffered with HEPES (mM): NaCl, 137; KCl, 4; CaCl2, 3,8; MgCl2, 1; HEPES, 10; Glucose, 10; pH 7.4. The […], 50; CsF, 90; MgCl2, 5; EGTA, 5; HEPES, 10; pH 7.2. The duration of exposure of each compound with cells expressing Nav 1.7 or Nav 1.8 was at least five minutes and the assays were performed at room temperature.
(§4) The measurements of the sodium currents of Nav 1.8 and Nav 1.7 were obtained using the voltage protocol described below.
(§5) A holding voltage of -100 mV was established followed by an inactivation voltage step at -40 mV for 8 seconds, followed by a step of -100 mV for 20 ms, followed by a 20 ms step for 10 mV for Nav 1.8 or 0 mV for Nav 1.7 (TP1A) before returning to the holding voltage of -100 mV.
(§6) The protocol was repeated at a frequency of 0.05 Hz and the amplitude of the current was quantified throughout the recording of the TP1A phase. The variation in the amplitude of the peak current was evaluated according to the formula described below, after exposing the cells expressing the channels to each concentration of the different compounds: % Block = (1−(ITP1A,molecule/ITP1A,basal)×100%, [formula] wherein ITP1A,basal and ITP1A,molecule represent the peaks of sodium current input into TP1A before exposure to the compound and in the presence of the compound, respectively.
(§7) Data were obtained by nonlinear regression (nonlinear least squares) with XLfit for Excel (Microsoft, Redmond, WA).
(§8) The compounds were tested in at least one assay to obtain the value of CI50. For compounds that were tested in two or more assays, the results are described as the means of the CI50 values.

[2] = target: T2, human sodium channels Nav 1.7 (Homo sapiens, UniProt Q15858); assay: Automated whole-cell voltage-clamp (ScreenPatch 384P) sodium current block, Nav 1.7; assay type: cell-based; conditions: CHO cells stably expressing human Nav 1.7; inactivation step -40 mV 8 s, test step 0 mV (TP1A); eight concentrations; exposure at least five minutes; room temperature; read-out: Nav1.7 IC50
T2 construct: expressed in transfected cells
Protocol: as §1, §2, §3, §4, §5, §6, §7, §8

T1 sequence (Q9Y5Y9 whole entry): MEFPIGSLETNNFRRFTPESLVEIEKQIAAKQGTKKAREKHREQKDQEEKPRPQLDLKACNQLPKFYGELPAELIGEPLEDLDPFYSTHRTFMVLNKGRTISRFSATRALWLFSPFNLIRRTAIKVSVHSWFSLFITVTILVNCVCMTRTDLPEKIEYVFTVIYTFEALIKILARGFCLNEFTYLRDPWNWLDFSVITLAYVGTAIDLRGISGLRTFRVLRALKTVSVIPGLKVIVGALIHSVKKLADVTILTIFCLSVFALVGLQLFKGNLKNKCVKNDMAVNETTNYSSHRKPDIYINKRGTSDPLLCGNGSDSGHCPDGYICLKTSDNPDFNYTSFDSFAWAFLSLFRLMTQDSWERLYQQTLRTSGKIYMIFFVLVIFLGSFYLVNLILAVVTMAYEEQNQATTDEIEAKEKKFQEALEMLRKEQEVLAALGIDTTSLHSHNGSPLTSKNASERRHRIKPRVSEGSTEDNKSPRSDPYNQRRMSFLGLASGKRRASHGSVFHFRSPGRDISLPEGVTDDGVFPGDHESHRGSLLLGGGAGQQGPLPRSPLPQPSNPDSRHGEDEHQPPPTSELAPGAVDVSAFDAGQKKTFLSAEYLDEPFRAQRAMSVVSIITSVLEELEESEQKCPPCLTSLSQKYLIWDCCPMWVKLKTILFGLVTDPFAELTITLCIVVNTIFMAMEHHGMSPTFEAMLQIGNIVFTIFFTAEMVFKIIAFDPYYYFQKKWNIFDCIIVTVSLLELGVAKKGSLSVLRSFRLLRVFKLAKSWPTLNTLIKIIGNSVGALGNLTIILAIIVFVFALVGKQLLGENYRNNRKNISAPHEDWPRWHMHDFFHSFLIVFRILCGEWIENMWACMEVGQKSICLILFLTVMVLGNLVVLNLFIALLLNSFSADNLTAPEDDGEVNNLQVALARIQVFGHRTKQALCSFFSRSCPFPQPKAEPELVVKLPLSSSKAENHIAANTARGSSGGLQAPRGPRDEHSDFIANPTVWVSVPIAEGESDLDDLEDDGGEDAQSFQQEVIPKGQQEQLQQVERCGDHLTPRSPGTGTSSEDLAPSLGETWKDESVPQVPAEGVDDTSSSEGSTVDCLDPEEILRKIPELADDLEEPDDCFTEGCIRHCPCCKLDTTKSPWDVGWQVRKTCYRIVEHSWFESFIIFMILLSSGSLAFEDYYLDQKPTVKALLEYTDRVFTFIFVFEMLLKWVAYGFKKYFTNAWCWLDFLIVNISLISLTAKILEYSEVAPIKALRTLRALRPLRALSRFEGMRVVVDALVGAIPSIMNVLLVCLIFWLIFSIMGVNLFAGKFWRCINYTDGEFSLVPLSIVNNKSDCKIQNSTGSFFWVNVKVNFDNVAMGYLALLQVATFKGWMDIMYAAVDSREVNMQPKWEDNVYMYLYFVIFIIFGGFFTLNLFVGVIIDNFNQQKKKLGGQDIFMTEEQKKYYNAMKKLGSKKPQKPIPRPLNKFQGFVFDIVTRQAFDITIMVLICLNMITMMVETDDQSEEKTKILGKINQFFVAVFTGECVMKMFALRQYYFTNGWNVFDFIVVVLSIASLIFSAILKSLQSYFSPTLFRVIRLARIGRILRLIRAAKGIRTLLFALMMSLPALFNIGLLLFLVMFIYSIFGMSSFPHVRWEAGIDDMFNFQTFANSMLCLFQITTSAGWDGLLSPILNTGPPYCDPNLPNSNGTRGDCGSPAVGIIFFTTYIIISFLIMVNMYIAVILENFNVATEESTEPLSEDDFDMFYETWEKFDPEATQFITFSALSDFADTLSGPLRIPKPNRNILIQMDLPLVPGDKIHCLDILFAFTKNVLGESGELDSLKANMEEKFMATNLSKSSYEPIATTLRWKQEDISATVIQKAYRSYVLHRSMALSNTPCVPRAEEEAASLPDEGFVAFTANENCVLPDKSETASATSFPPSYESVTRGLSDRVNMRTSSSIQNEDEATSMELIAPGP
T2 sequence (Q15858 whole entry): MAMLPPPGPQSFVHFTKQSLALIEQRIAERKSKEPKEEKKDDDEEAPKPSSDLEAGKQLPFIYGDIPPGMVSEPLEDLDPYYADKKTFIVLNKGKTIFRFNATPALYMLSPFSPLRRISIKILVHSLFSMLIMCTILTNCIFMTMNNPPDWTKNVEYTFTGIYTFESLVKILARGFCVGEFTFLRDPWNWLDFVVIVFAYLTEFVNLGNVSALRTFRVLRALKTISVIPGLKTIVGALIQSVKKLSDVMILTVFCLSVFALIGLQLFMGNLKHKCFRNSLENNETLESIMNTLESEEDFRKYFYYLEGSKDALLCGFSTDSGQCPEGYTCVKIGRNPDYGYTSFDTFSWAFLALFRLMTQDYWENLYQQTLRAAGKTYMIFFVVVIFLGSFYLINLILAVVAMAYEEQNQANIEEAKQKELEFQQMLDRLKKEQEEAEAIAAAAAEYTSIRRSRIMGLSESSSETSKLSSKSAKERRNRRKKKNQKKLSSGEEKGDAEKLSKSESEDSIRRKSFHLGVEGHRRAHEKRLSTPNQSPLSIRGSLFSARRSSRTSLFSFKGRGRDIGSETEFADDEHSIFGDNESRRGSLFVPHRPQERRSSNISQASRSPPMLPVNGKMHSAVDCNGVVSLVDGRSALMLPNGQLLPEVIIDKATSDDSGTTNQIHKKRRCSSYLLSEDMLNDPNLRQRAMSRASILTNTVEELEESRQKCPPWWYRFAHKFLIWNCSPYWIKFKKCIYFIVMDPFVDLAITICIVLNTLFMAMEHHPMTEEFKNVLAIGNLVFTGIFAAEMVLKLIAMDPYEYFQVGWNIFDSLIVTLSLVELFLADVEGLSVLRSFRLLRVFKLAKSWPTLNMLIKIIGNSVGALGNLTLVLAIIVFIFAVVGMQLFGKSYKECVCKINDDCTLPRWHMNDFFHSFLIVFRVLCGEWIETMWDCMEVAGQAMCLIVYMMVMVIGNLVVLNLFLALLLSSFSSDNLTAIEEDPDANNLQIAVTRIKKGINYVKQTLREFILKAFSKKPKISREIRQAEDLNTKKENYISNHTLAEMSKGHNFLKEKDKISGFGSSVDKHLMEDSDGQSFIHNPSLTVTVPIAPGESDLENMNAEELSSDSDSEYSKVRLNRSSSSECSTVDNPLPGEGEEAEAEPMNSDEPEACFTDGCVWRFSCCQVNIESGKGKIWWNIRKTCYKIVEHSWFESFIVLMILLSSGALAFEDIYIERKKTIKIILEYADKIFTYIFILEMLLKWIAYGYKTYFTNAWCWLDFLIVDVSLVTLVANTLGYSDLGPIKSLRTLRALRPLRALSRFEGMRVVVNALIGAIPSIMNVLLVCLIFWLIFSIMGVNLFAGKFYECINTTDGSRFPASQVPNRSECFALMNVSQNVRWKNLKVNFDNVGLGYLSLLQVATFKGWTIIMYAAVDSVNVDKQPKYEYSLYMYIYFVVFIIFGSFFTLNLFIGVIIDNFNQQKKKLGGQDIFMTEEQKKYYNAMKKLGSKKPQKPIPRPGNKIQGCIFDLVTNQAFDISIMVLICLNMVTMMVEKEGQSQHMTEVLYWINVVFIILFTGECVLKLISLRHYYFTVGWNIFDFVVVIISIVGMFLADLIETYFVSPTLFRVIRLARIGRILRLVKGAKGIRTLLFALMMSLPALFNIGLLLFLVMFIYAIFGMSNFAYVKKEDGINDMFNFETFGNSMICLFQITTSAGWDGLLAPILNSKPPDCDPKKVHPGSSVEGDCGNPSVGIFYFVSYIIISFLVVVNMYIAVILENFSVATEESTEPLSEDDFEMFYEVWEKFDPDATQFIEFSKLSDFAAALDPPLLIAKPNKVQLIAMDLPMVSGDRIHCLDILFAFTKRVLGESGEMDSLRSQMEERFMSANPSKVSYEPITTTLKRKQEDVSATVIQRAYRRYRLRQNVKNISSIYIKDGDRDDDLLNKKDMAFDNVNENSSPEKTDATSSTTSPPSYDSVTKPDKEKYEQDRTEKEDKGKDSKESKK

| SMILES | pIC50 [1] | pIC50 [2] |
| --- | --- | --- |
| CCOc1ccc(-c2nc(C(=O)N/N=C/c3cc(OC)ccc3F)cnc2O)cn1 [Compound 66, (E)-6-(6-ethoxypyridine-3-yl)-N'-(2-fluoro-5-methoxybenzylidene)-5-hydroxypyrazine-2-carbohydrazide] | < 6.00 | < 6.00 |
| CCOc1ccc(-c2nc(C(=O)N/N=C/c3cc(OC)cnc3F)cnc2O)cn1 [Compound 67, (E)-6-(6-ethoxypyridine-3-yl)-N'-((2-fluoro-5-methoxypyridine-3-yl)methylene)-5-hydroxypyrazine-2-carbohydrazide] | < 6.00 | < 6.00 |
| CCOc1ccc(-c2cnc(O)c(C(=O)N/N=C/c3cc(OC)ccc3F)n2)cn1 [Compound 68, (E)-6-(6-ethoxypyridine-3-yl)-N'-(2-fluoro-5-methoxybenzylidene)-3-hydroxypyrazine-2-carbohydrazide] | < 6.00 | < 6.00 |
| CCOc1ccc(-c2nc(C(=O)N/N=C/c3cccn3C)cnc2O)cn1 [Compound 69, (E)-6-(6-ethoxypyridine-3-yl)-5-hydroxy-N'-((1-methyl-1H-pyrrole-2-yl)methylene)pyrazine-2-carbohydrazide] | < 6.00 | < 6.00 |
| CCOc1ccc(-c2cnc(O)c(C(=O)N/N=C/c3cccn3C)n2)cn1 [Compound 70, (E)-6-(6-ethoxypyridine-3-yl)-3-hydroxy-N'-((1-methyl-1H-pyrrole-2-yl)methylene)pyrazine-2-carbohydrazide] | < 6.00 | < 6.00 |
| CCOc1ccc(-c2cccc(C(=O)N/N=C/c3cc(OC)cnc3F)n2)cn1 [Compound 71, (E) -6'-ethoxy-N'-((2-fluoro-5-methoxypyridine-3-yl)methylene)-[2,3'-bipyridine]-6-carbohydrazide] | > 6.30 | 6.00 to 6.30 |
| CCOc1ccc(-c2nccc(C(=O)N/N=C/c3cc(OC)cnc3F)n2)cn1 [Compound 72, (E)-2-(6-ethoxypyridine-3-yl)-N'-((2-fluoro-5-methoxypyridine-3-yl)methylene) pyrimidine-4-carbohydrazide] | > 6.30 | < 6.00 |
| CCOc1ccc(-c2ccnc(C(=O)N/N=C/c3cc(OC)cnc3F)n2)cn1 [Compound 73, (E)-4-(6-ethoxypyridine-3-yl)-N'-((2-fluoro-5-methoxypyridine-3-yl)methylene) pyrimidine-2-carbohydrazide] | 6.00 to 6.30 | < 6.00 |
| CCOc1ccc(-c2cncc(C(=O)N/N=C/c3cc(OC)cnc3F)c2)cn1 [Compound 74, (E)-6'-ethoxy-N'-((2-fluoro-5-methoxypyridine-3-yl)methylene)-[3,3'-bipyridine]-5-carbohydrazide] | < 6.00 | < 6.00 |
| CCOc1ccc(-c2nc(C(=O)N/N=C/c3cc(OC)cnc3F)cn(C)c2=O)cn1 [Compound 75, (E)-6-(6-ethoxypyridine-3-yl)-N'-((2-fluoro-5-methoxypyridine-3-yl)methylene)-4-methyl-5-oxo-4,5-dihydropyrazine-2-carbohydrazide] | < 6.00 | < 6.00 |
| CCOc1ccc(-c2nc(C(=O)N/N=C/c3cc(OC)ccc3F)cn(C)c2=O)cn1 [Compound 76, (E)-6-(6-ethoxypyridine-3-yl)-N'-(2-fluoro-5-methoxybenzylidene)-4-methyl-5-oxo-4,5-dihydropyrazine-2-carbohydrazide] | < 6.00 | < 6.00 |
| COc1cc(/C=N/NC(=O)c2cncc(-c3ccc(OC4CC4)nc3)n2)c(F)cc1F [Compound 78, (E)-6-(6-cyclopropoxypyridine-3-yl)-N'-(2,4-difluoro-5-methoxybenzylidene) pyrazine-2-carbohydrazide] | > 6.30 | > 6.30 |
| COc1cc(/C=N/NC(=O)c2cncc(-c3ccc(OC4CC4)nc3)n2)ccc1F [Compound 81, (E)-6-(6-cyclopropoxypyridine-3-yl)-N'-(4-fluoro-3-methoxybenzylidene)pyrazine-2-carbohydrazide] | > 6.30 | 6.00 to 6.30 |
| O=C(N/N=C/c1cc(OC2CC2)ccc1F)c1cncc(-c2ccc(OC3CC3)nc2)n1 [Compound 82, (E)-N'-(5-cyclopropoxy-2-fluorobenzylidene)-6-(6-cyclopropoxypyridine-3-yl)pyrazine-2-carbohydrazide] | > 6.30 | > 6.30 |
| O=C(N/N=C/c1ccccn1)c1cncc(-c2ccc(OC(F)(F)F)nc2)n1 [Compound 84, (E)-N'-(pyridine-2-ylmethylene)-6-(6-(trifluoromethoxy)pyridine-3-yl)pyrazine-2-carbohydrazide] | < 6.00 | < 6.00 |
| O=C(N/N=C/c1cccnc1)c1cncc(-c2ccc(OC(F)(F)F)nc2)n1 [Compound 86, (E)-N'-(pyridine-3-ylmethylene)-6-(6-(trifluoromethoxy)pyridine-3-yl)pyrazine-2-carbohydrazide] | < 6.00 | < 6.00 |
| O=C(N/N=C/c1ccncc1)c1cncc(-c2ccc(OC(F)(F)F)nc2)n1 [Compound 87, (E)-N'-(pyridine-4-ylmethylene)-6-(6-(trifluoromethoxy)pyridine-3-yl)pyrazine-2-carbohydrazide] | < 6.00 | < 6.00 |

Second part, the compound after the results:

| pIC50 [1] | pIC50 [2] | SMILES |
| --- | --- | --- |
| > 6.30 | > 6.30 | COc1ccc(F)c(/C=N/NC(=O)c2cncc(-c3ccc(OC4CC4)nc3)n2)c1 [Compound 77, (E)-6-(6-cyclopropoxypyridine-3-yl)-N'-(2-fluoro-5-methoxybenzylidene)pyrazine-2-carbohydrazide] |
| > 6.30 | > 6.30 | CC(C)Oc1ccc(F)c(/C=N/NC(=O)c2cncc(-c3ccc(OC4CC4)nc3)n2)c1 [Compound 79, (E)-6-(6-cyclopropoxypyridine-3-yl)-N'-(2-fluoro-5-isopropoxybenzylidene) pyrazine-2-carbohydrazide] |
| > 6.30 | < 6.00 | CCOc1ccc(F)c(/C=N/NC(=O)c2cncc(-c3ccc(OC4CC4)nc3)n2)c1 [Compound 80, (E)-6-(6-cyclopropoxypyridine-3-yl)-N'-(5-ethoxy-2-fluorobenzylidene)pyrazine-2-carbohydrazide] |
| > 6.30 | < 6.00 | COc1ccc(F)c(/C=N/NC(=O)c2cncc(-c3ccc(OC(F)(F)F)nc3)n2)c1 [Compound 83, (E)-N'-(2-fluoro-5-methoxybenzylidene)-6-(6-(trifluoromethoxy)pyridine-3-yl)pyrazine-2-carbohydrazide] |
| > 6.30 | < 6.00 | COc1ccnc(/C=N/NC(=O)c2cncc(-c3ccc(OC(F)(F)F)nc3)n2)c1 [Compound 85, (E)-N'-((4-methoxypyridine-2-yl)methylene)-6-(6-(trifluoromethoxy)pyridine-3-yl)pyrazine-2-carbohydrazide] |
| > 6.30 | > 6.30 | Cc1ccccc1/C=N/NC(=O)c1cncc(-c2ccc(OC(F)(F)F)nc2)n1 [Compound 88, (E)-N'-(2-methylbenzylidene)-6-(6-(trifluoromethoxy)pyridine-3-yl)pyrazine-2-carbohydrazide] |
| > 6.30 | < 6.00 | O=C(N/N=C/c1ccccc1F)c1cncc(-c2ccc(OC(F)(F)F)nc2)n1 [Compound 89, (E)-N'-(2-fluorobenzylidene)-6-(6-(trifluoromethoxy)pyridine-3-yl)pyrazine-2-carbohydrazide] |
| > 6.30 | < 6.00 | COc1cccc(/C=N/NC(=O)c2cncc(-c3ccc(OC(F)(F)F)nc3)n2)c1 [Compound 90, (E)-N'-(3-methoxybenzylidene)-6-(6-(trifluoromethoxy)pyridine-3-yl)pyrazine-2-carbohydrazide] |
| > 6.30 | < 6.00 | CCOc1ccc(F)c(/C=N/NC(=O)c2cncc(-c3ccc(OC(F)(F)F)nc3)n2)c1 [Compound 91, (E)-N'-(5-ethoxy-2-fluorobenzylidene)-6-(6-(trifluoromethoxy)pyridine-3-yl)pyrazine-2-carbohydrazide] |
| > 6.30 | > 6.30 | CC(C)Oc1ccc(F)c(/C=N/NC(=O)c2cncc(-c3ccc(OC(F)(F)F)nc3)n2)c1 [Compound 92, (E)-N'-(2-fluoro-5-isopropoxybenzylidene)-6-(6-(trifluoromethoxy)pyridine-3-yl)pyrazine-2-carbohydrazide] |
